Read-outs that look alike come from different tables or passages of the source.
Assays:
[1] = Scavenging effects on hydroxyl free radicals (Fenton reaction, ESR)
cerebral basilar artery = assay: Experiment on cerebral basilar artery (isolated artery on transducer, KCl as vasoconstrictor); settings: for Effect on the basilar artery (dilation): 50 μl solution added to the bath
Procedure: Take 50 μl solutions to dissolved in 5 ml saline again. (2). Remove the cerebrum and cerebellum from the fresh brain, and get the middle part of the basilar artery (3). Adjust the transducer and amplifier to make pointer return to zero (4). Hang the basilar artery on the transducer and immerse it in the bath.

rat thoracic aorta = settings: 0.04 mM
Source text: Take thoracic aorta from rat, remove the connective tissue and blood, immerse the aorta into the Krebs-Henselelt liquid and ventilate oxygen, hang the aorta on the transducer, and assay its radial tension.

[2] = test system: rat hippocampus neuronal cells; assay: Proliferation of rat hippocampus neuronal cells (MTT staining, OD); type: cell-based; settings: 7 days
Procedure: 1. Get hippocampus neuronal cells from rat embryo and do preliminary cell culture.
2. Incubate the cells for 7 days at different concentration (3 or 5 parallel holes for each group).
3. Do MTT staining and measure OD value.

[3] = test system: nicotinic receptors (SY-SH5Y human neuroblastoma cell); settings: SY-SH5Y cells treated three days, 1 μM up to 100 μM
Procedure: (§1) In the experiments, we used two different cell lines, SY-SH5Y and M10. SY-SH5Y is human neuroblastoma cell which expresses natural nicotinic and muscarinic receptors, and M10 cell expresses the recombinant a4b2 subtype of chicken nicotinic receptor. We treated both cell lines with Compound III for three days with different concentrations from 1 μM up to 100 μM, and measured the amount of nAChRs.

[4] = test system: recombinant a4b2 subtype of chicken nicotinic receptor (M10 cells); settings: M10 cells treated three days, 1 μM up to 100 μM
Procedure: as §1

[5] = test system: cerebral blood flow of rat; settings: for Mean of rCBF / Rate of rCBF increase / rCBF Rat 1 / rCBF Rat 2 / rCBF Rat 3 / rCBF Rat 4: 50 μg/Kg intravenous
Procedure: Method: Hydrogen-clearing method
Instrument: LS-III Blood Flow Meter
1. Anesthetize the rat with 10% chloral hydrate, separate the general vein of thigh and intubate to prepare to inject Compound III.
2. Open a window in the parietal lobe of dermal epithelium with cranial drill and lay up hydrogen electrode.
3. After operation, collect the animal with the Blood Follow Meter and computer, steady for 30 minutes and begin to measure the rCBF (regional cerebral blood flow).

## CC1=C(CC[C@H](C)CO[C@@H]2O[C@H](CO)[C@@H](O)[C@H](O)[C@H]2O)O[C@H]2C[C@H]3[C@@H]4CC[C@@H]5C[C@@H](O[C@@H]6O[C@H](CO)[C@H](O)[C@H](O)[C@H]6O[C@@H]6O[C@H](CO)[C@@H](O)[C@H](O)[C@H]6O)CC[C@]5(C)[C@H]4CC[C@]3(C)[C@@H]12 [Compound I, (25S)-26-O-β-D-glucopyranosyl-5β-furost-20(22)-ene-3β,26-diol-3-O-β-D-glucopyranosyl(1→2)-β-D-galactopyranoside]
[1]; 5 mg/ml, ESR, Fenton reaction
  Scavenging rate: 23.3%
[1]; Fe^2++H2O2
  Scavenging of hydroxyl free radicals produced by Fenton reaction (in words): could scavenge
Cerebral basilar artery
  Effect on the basilar artery (dilation): no obvious effect

## CC1=C(CC[C@H](C)CO[C@@H]2O[C@H](CO)[C@@H](O)[C@H](O)[C@H]2O)O[C@H]2C[C@H]3[C@@H]4CC[C@@H]5C[C@@H](O[C@@H]6O[C@H](CO)[C@@H](O)[C@H](O)[C@H]6O[C@@H]6O[C@H](CO)[C@@H](O)[C@H](O)[C@H]6O)CC[C@]5(C)[C@H]4CC[C@]3(C)[C@@H]12 [Compound II, (25S)-26-O-β-D-glucopyranosyl-5β-furost-20(22)-ene-3β,26-diol-3-O-β-D-glucopyranosyl(1→2)-β-D-glucopyranoside]
[1]; 5 mg/ml, ESR, Fenton reaction
  Scavenging rate: 40.0%
[1]; Fe^2++H2O2
  Scavenging of hydroxyl free radicals produced by Fenton reaction (in words): could scavenge
Cerebral basilar artery
  Effect on the basilar artery (dilation): no obvious effect

## C[C@@H](CCC1(O)O[C@H]2C[C@H]3[C@@H]4CC[C@@H]5C[C@@H](O[C@@H]6O[C@H](CO)[C@H](O)[C@H](O)[C@H]6O[C@@H]6O[C@H](CO)[C@@H](O)[C@H](O)[C@H]6O)CC[C@]5(C)[C@H]4CC[C@]3(C)[C@H]2[C@@H]1C)CO[C@@H]1O[C@H](CO)[C@@H](O)[C@H](O)[C@H]1O (stereo partly drawn) [Compound III, (25S)-26-β-D-glucopyranosyl-22-hydroxy-5β-furost-3β,26-diol-3-0-β-D-glucopyranosyl(1→2)-β-D-galactopyranoside]
Rat thoracic aorta
  Inhibition of contraction of rat aorta caused by KCl: could restrain the contraction
[2]; 0.1 μg/ml
  Mean of OD: 0.0773
  Proliferation rate: 23.88%
[2]; 1 μg/ml
  Mean of OD: 0.0663
  Proliferation rate: 6.25%
[2]; 10 μg/ml
  Mean of OD: 0.0860
  Proliferation rate: 37.82%
[2]; 50 μg/ml
  Mean of OD: 0.0807
  Proliferation rate: 29.33%
[2]; 100 μg/ml
  Mean of OD: 0.0750
  Proliferation rate: 20.19%
[2]; 500 μg/ml
  Mean of OD: 0.0903
  Proliferation rate: 44.71%
[2]; 1000 μg/ml
  Mean of OD: 0.0673
  Proliferation rate: 7.853%
[1]
  Inhibitory rate (hydroxyl free radicals): 56.7%
  Scavenging effect relative to the other compounds: most effective
  Scavenging of hydroxyl free radicals produced by Fenton reaction (in words): could scavenge
  Scavenging rate: 56.7%
Cerebral basilar artery
  Effect on the basilar artery (dilation): dilated slightly
Cerebral basilar artery; after 50 μl compound added to the bath
  Contraction of the basilar artery when adding the vasoconstrictor KCl: did not contract again
Cerebral basilar artery; at 10^−5 g/ml (0.01 mM)
  Dilation of cerebral vascular and resistance to contraction caused by vasoconstrictor: could dilate cerebral vascular and resist the contraction caused by vasoconstrictor
Cerebral basilar artery; same experimental conditions
  Effective concentration compared with positive Ligustrazine: two orders of magnitude lower
[3]
  Number of nAChRs: significantly up-regulate
[4]
  Number of nAChRs: significantly up-regulate
[5]; 1 min
  Mean of rCBF: 141562.5 µL/min/mg
  Rate of rCBF increase: 7.806%
  rCBF Rat 1: 133300 µL/min/mg
  rCBF Rat 2: 150050 µL/min/mg
  rCBF Rat 3: 139550 µL/min/mg
  rCBF Rat 4: 143350 µL/min/mg
[5]; 10 min
  Mean of rCBF: 149785 µL/min/mg
  Rate of rCBF increase: 14.07%
  rCBF Rat 1: 147990 µL/min/mg
  rCBF Rat 2: 143410 µL/min/mg
  rCBF Rat 3: 162100 µL/min/mg
  rCBF Rat 4: 145640 µL/min/mg
[5]; 20 min
  Mean of rCBF: 148405 µL/min/mg
  Rate of rCBF increase: 13.02%
  rCBF Rat 1: 158460 µL/min/mg
  rCBF Rat 2: 136330 µL/min/mg
  rCBF Rat 3: 177590 µL/min/mg
  rCBF Rat 4: 121240 µL/min/mg
[5]; 30 min
  Mean of rCBF: 163497.5 µL/min/mg
  Rate of rCBF increase: 24.51%
  rCBF Rat 1: 164610 µL/min/mg
  rCBF Rat 2: 182960 µL/min/mg
  rCBF Rat 3: 171420 µL/min/mg
  rCBF Rat 4: 135000 µL/min/mg
[5]; 40 min
  Mean of rCBF: 164670 µL/min/mg
  Rate of rCBF increase: 25.4%
  rCBF Rat 1: 176900 µL/min/mg
  rCBF Rat 2: 202460 µL/min/mg
  rCBF Rat 3: 165940 µL/min/mg
  rCBF Rat 4: 113380 µL/min/mg
[5]; 50 min
  Mean of rCBF: 166147.5 µL/min/mg
  Rate of rCBF increase: 26.53%
  rCBF Rat 1: 176770 µL/min/mg
  rCBF Rat 2: 193570 µL/min/mg
  rCBF Rat 3: 163080 µL/min/mg
  rCBF Rat 4: 131170 µL/min/mg
[5]; 50 μg/kg in vivo (text summary, time not stated)
  Increase of the rCBF of rat: 26.5%
[5]; administered intravenously at the effective concentration (50 μg/kg)
  Hemolysis: no hemolysis

## COC1(CC[C@H](C)CO[C@@H]2O[C@H](CO)[C@@H](O)[C@H](O)[C@H]2O)O[C@H]2C[C@H]3[C@@H]4CC[C@@H]5C[C@@H](O[C@@H]6O[C@H](CO)[C@H](O)[C@H](O)[C@H]6O[C@@H]6O[C@H](CO)[C@@H](O)[C@H](O)[C@H]6O)CC[C@]5(C)[C@H]4CC[C@]3(C)[C@H]2[C@@H]1C (stereo partly drawn) [Compound IV, (25S)-26-0-β-D-glucopyranosyl-22-methoxy-5β-furost-3β,26-diol-3-0-β-D-glucopyranosyl(1→2)-β-D-galactopyranoside]
[1]
  Scavenging of hydroxyl free radicals produced by Fenton reaction (in words): could scavenge
  Scavenging rate: 33.3%
Cerebral basilar artery
  Effect on the basilar artery (dilation): no obvious effect

— patent US6593301B1, “Use of steroidal saponins for the prophylaxis or treatment of dementia, and novel steroidal saponin compounds” (Institute of Radiation Medicine, priority 2000, dated 2003)
